Test results published in article PMC9204775 (ACS Chemical Neuroscience, 2022).

Tests used:
human (α4)3(β2)2 nAChR = human (α4)3(β2)2 nAChR (Homo sapiens, UniProt P17787+P43681); assay: Two-electrode voltage-clamp recording, (α4)3(β2)2 nAChRs expressed in Xenopus oocytes (α4:β2 cRNA 10:1); conditions: for remaining activity at 100 µM: read-out: (α4)3(β2)2 nAChR (% control response ACh)
Procedure: (§2) To achieve heterologous expression of human α4β2 nAChRs in two distinct subunit stoichiometries [(α4)2(β2)3 and (α4)3(β2)2], a well-established protocol was employed in which Xenopus laevis oocytes were injected with α4 and β2 cRNA in ratios of 1:10 and 10:1, respectively.[19],[20] […] Oocytes were injected, using a Drummond variable volume microinjector, with 32.2 nL of cRNA containing either a mixture of 30 ng/μL human α4 and 300 ng/μL human β2 or 300 ng/μL human α4 and 30 ng/μL human β2 cRNAs.
(§3) Xenopus were anesthetized by immersion in 0.2% MS222 for 15 min (or until complete anesthesia was confirmed by absence of leg-withdrawal and righting reflex), followed by cranial concussion, decapitation, and pithing. Xenopus oocytes were isolated, maintained, and injected with cRNA, as described previously.[21] […] Application of compounds was controlled by LabChart software (AD Instruments) using a BPS-8 solenoid valve solution exchange system (ALA Scientific Inc.). Typically, agonists were applied for 5 s or until a plateau in the response was observed. Antagonists were preapplied for 30 s and then coapplied with agonist for 5 s or until a plateau in the response was observed.
(§4) For individual pairwise comparisons, statistical significance was determined using unpaired Student’s t tests or ANOVA for multiple comparisons. Dose–response curves were fitted by GraphPad Prism, using the following equation (where I is the current, Imax is the maximum current, the EC50 is the concentration of agonist that elicits a half-maximal response, and nH is the Hill coefficient): [drawing 1]

human (α4)2(β2)3 nAChR = target: T1, human (α4)2(β2)3 nAChR (Homo sapiens, UniProt P17787+P43681); assay: Two-electrode voltage-clamp recording, (α4)2(β2)3 nAChRs expressed in Xenopus oocytes (α4:β2 cRNA 1:10); assay type: cell-based; conditions: for stoichiometry selectivity of antagonism, (α4)2(β2)3 versus (α4)3(β2)2 nAChRs: 100 μM antibiotic coapplied with EC50 concentration of ACh, compared with (α4)3(β2)2; for remaining activity at 100 µM: read-out: (α4)2(β2)3 nAChR (% control response to ACh)
T1 construct: expressed in transfected cells; host or cells: Xenopus laevis oocytes (cRNA injection)
T1 sequence (P43681 27-627): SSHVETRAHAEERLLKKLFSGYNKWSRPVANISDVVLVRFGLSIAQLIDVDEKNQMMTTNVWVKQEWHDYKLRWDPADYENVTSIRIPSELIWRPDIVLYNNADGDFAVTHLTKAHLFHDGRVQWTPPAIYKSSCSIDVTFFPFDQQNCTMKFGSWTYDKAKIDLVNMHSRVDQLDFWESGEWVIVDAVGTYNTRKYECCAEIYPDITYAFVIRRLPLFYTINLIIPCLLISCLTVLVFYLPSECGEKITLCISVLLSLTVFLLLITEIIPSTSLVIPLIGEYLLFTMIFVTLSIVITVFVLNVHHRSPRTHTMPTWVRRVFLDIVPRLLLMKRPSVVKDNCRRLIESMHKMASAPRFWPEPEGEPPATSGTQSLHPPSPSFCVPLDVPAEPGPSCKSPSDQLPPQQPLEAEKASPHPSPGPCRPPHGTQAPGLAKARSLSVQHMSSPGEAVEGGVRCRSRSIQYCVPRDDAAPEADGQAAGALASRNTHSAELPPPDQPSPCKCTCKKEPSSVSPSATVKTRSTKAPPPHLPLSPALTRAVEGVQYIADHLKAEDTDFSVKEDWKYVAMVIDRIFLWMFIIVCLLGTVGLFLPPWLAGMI
T1 sequence (P17787 26-502): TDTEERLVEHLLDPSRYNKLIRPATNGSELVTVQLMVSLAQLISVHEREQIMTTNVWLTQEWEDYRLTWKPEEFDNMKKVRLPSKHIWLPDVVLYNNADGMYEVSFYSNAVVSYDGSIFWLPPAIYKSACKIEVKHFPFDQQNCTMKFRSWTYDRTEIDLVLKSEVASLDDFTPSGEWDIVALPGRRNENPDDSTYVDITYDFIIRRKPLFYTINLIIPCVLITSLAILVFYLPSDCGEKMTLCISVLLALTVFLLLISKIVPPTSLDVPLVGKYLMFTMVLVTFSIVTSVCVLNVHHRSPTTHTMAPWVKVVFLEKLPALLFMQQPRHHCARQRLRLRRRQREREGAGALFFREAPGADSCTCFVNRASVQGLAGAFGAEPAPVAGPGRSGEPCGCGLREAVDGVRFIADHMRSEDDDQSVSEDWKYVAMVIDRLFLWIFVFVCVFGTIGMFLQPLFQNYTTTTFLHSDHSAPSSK
Procedure: as §2, §3, §4

human α7 nAChRs = conditions: previous studies; cited from earlier work
[1] = target: α4β2 nAChRs containing mutated α4^L283A (Homo sapiens, UniProt P17787+P43681, L283A); conditions: no ACh
α4β2 nAChRs containing mutated α4^L283A, sequence (P43681 27-627 L283A): as the sequence (P43681 27-627) above, with L257A counted along it
α4β2 nAChRs containing mutated α4^L283A, sequence (P17787 26-502): as the sequence (P17787 26-502) above
Text: (§1) Human nAChR subunit cDNAs in plasmid expression vector pSP64GL (pSP64GL-α4 and pSP64GL-β2) have been described previously.[18] […] Note that the numbering of these amino acids in the human nAChR α4 and β2 subunits is based on the intact protein sequence (including the signal sequence), as indicated in the EMBL/GenBank database entries NP_000735.1 and NP_000739.1, respectively.

[2] = target: α4β2 nAChRs containing the β2^V278A subunit (Homo sapiens, UniProt P17787+P43681, V278A); conditions: no ACh
α4β2 nAChRs containing the β2^V278A subunit, sequence (P43681 27-627): as the sequence (P43681 27-627) above
α4β2 nAChRs containing the β2^V278A subunit, sequence (P17787 26-502 V278A): as the sequence (P17787 26-502) above, with V253A counted along it
Text: as §1

[3] = target: α4β2 nAChRs containing mutated α4^S284A (Homo sapiens, UniProt P17787+P43681, S284A); conditions: no ACh
α4β2 nAChRs containing mutated α4^S284A, sequence (P43681 27-627 S284A): as the sequence (P43681 27-627) above, with S258A counted along it
α4β2 nAChRs containing mutated α4^S284A, sequence (P17787 26-502, stated change not applied): as the sequence (P17787 26-502) above
Text: as §1

human α4β2 nAChR = target: T2, human α4β2 nAChR (Homo sapiens, UniProt P17787+P43681); assay: Two-electrode voltage-clamp recording, heterologously expressed α4β2 nAChRs (stoichiometry not distinguished); assay type: cell-based; conditions: wild-type, no ACh
T2 construct: expressed in transfected cells; host or cells: Xenopus laevis oocytes (cRNA injection)
T2 sequence (P43681 27-627): as the sequence (P43681 27-627) above
T2 sequence (P17787 26-502): as the sequence (P17787 26-502) above
Procedure: as §2
Xenopus oocytes were isolated, maintained, and injected with cRNA, as described previously.[21] Two-electrode voltage-clamp recordings were performed using a Warner Instruments OC-725C amplifier (Harvard Apparatus) with the oocyte membrane potential held at −60 mV, as described previously.[22] Oocytes were continuously perfused with a modified Ringer’s solution (115 mM NaCl, 2.5 mM KCl, 1.8 mM BaCl2, and 10 mM HEPES, pH 7.3). Application of compounds was controlled by LabChart software (AD Instruments) using a BPS-8 solenoid valve solution exchange system (ALA Scientific Inc.). Typically, agonists were applied for 5 s or until a plateau in the response was observed. Antagonists were preapplied for 30 s and then coapplied with agonist for 5 s or until a plateau in the response was observed.

[4] = 100 μM antibiotic coapplied with a range of ACh concentrations

human (α4)3(β2)2 nAChR, sequence (P43681 27-627): as the sequence (P43681 27-627) above
human (α4)3(β2)2 nAChR, sequence (P17787 26-502): as the sequence (P17787 26-502) above

Structure (SMILES)	remaining activity at 100 µM (human (α4)3(β2)2 nAChR)	stoichiometry selectivity of antagonism, (α4)2(β2)3 versus (α4)3(β2)2 nAChRs (human (α4)2(β2)3 nAChR)	remaining activity at 100 µM (human (α4)2(β2)3 nAChR)	other results
CCn1cc(C(=O)O)c(=O)c2cc3c(cc21)OCO3 [oxolinic acid]	60.4 ± 0.72%	no significant difference	59.5 ± 0.99%	–
CN1CCN(c2cc3c(cc2F)c(=O)c(C(=O)O)cn3-c2ccc(F)cc2)CC1 [difloxacin]	57.2 ± 0.97%	significantly greater antagonism on (α4)2(β2)3 nAChRs than on (α4)3(β2)2 nAChRs	39.9 ± 3.02%	–
C[C@@H]1CN(c2c(F)c(N)c3c(=O)c(C(=O)O)cn(C4CC4)c3c2F)C[C@H](C)N1 [sparfloxacin]	58.4 ± 1.72%	significantly greater antagonism on (α4)2(β2)3 nAChRs than on (α4)3(β2)2 nAChRs	17.4 ± 1.12%	–
CCn1cc(C(=O)O)c(=O)c2cc(F)c(N3CCNCC3)nc21 [enoxacin]	74.6 ± 1.88%	significantly greater antagonism on (α4)2(β2)3 nAChRs than on (α4)3(β2)2 nAChRs	23.5 ± 1.65%	–
CC(=O)OCC[N+](C)(C)C [ACh, acetylcholine]	–	–	–	Hill coefficient of ACh dose-response curve (human (α4)3(β2)2 nAChR; absence of antibiotic): 0.74 ± 0.
CCn1cc(C(=O)O)c(=O)c2cc(F)c(N3CCN(C)CC3)cc21 [pefloxacin]	–	–	–	mode of action on α7 nAChR (human α7 nAChRs): noncompetitive antagonist
CCN1CCN(c2cc3c(cc2F)c(=O)c(C(=O)O)cn3C2CC2)CC1 [enrofloxacin]	64.8 ± 1.01%	significantly greater antagonism on (α4)2(β2)3 nAChRs than on (α4)3(β2)2 nAChRs	13.2 ± 0.46%	–
CCn1cc(C(=O)O)c(=O)c2cc(F)c(N3CCNCC3)cc21 [norfloxacin]	54.1 ± 3.4%	significantly greater antagonism on (α4)2(β2)3 nAChRs than on (α4)3(β2)2 nAChRs	13 ± 1%	–
CCn1nc(C(=O)O)c(=O)c2cc3c(cc21)OCO3 [cinoxacin]	60.4 ± 0.61%	–	58.2 ± 1.2%	effect when applied alone [1]: no effect; effect when applied alone [2]: no effect; effect when applied alone [3]: no effect; Hill coefficient of ACh dose-response curve in the presence of the antibiotic (human (α4)3(β2)2 nAChR; 100 μM antibiotic): 0.62 ± 0.2; maximal normalized ACh response in the presence of the antibiotic (human (α4)3(β2)2 nAChR; [4]): 80.0 ± 0.9%; Hill coefficient of ACh dose-response curve in the presence of the antibiotic (human (α4)2(β2)3 nAChR; 100 μM antibiotic): 1.0 ± 0.1; maximal normalized ACh response in the presence of the antibiotic (human (α4)2(β2)3 nAChR; [4]): 76.0 ± 1.5%; effect when applied alone (human α4β2 nAChR): no effect
